Experimental data reported in patent publication US20260102418A1, “An anti-influenza virus derivative and uses thereof” (Shijiazhuang Discovery Medicine Technology Co., Ltd., priority 2022, published 2026).

tested on: A/Weiss/43 (H1N1) oseltamivir-resistant strain; experiment: Antiviral CPE assay in MDCK, other influenza strains; assay type: cell-based, influenza A virus (IAV); conditions: Influenza A virus

`COC(=O)OCOc1c2n(ccc1=O)N([C@@H]1c3ccccc3SCc3c1ccc(F)c3F)[C@@H]1COC3(CC3)CN1C2=O` [Compound M42, reference compound] and `[2H]C([2H])([2H])OC(=O)OCOc1c2n(ccc1=O)N([C@@H]1c3ccccc3SCc3c1ccc(F)c3F)[C@@H]1COC3(CC3)CN1C2=O` [DS1837] are within error of each other in EC50: 2.11 ± 0.72 nM for the first, 1.45 ± 0.55 nM for the second.

`[2H]C([2H])([2H])OC(=O)OCOc1c2n(ccc1=O)N([C@@H]1c3ccccc3[Se]Cc3c1ccc(F)c3F)[C@@H]1COC3(CC3)CN1C2=O` [DS1833] and `O=C1c2c(OCOP(=O)(O)O)c(=O)ccn2N([C@@H]2c3ccccc3[Se]Cc3c2ccc(F)c3F)[C@@H]2COC3(CC3)CN12` [DS14915] are within error of each other in EC50: 1.16 ± 0.37 nM for the first, 1.33 ± 0.22 nM for the second.

`NC(=O)c1ncn([C@@H]2O[C@H](CO)[C@@H](O)[C@H]2O)n1` [Ribavirin, reference compound] was tested, and the EC50 was 30300 ± 4080 nM.
